From patent publication US7166616B2, “Substituted alkanoic acids” (Aventis Pharma Limited, priority 2000, dated 2007)

melting point [°C] | SMILES
123 to 126 | Cc1ccccc1Nc1nc2ccc(CC(=O)Nc3ccc(C4(CC(=O)O)CCCC4)cc3)cc2o1 [Example 1, (1-{4-[2-(2-o-Tolylamino-benzoxazol-6-yl)-acetylamino]-phenyl}-cyclopentyl)-acetic acid]
223 to 226 | COc1cc(CC(=O)Nc2ccc(C3(CC(=O)O)CCCC3)cc2)ccc1NC(=O)Nc1ccccc1C [Example 2, [1-{4-[2-[3-Methoxy-4-[3-o-tolyl-ureido]-phenyl]-acetylamino]-phenyl}-cyclopentyl]-acetic acid]
